Entries after “also recorded” stand apart in the source; their conditions may differ. Read-outs that look alike come from different tables or passages of the source. Marks after values point to notes of the source that are not given here.
Columns and labels:
[1] = test system: multicellular spheroids formed from HepG2 cells; assay: 3D multicellular spheroid culture, Alamar blue, 72 h; type: cell-based, human; conditions: read-out: IC50 and 95% CI, 3D HepG2 spheroids
Method: HepG2 cells were cultivated as 3D multicellular spheroids in a 96-well plate with a cell-repellent surface. Briefly, 100 μL of a suspension of cells (5 × 10^5 cells/mL) was seeded into a 96-well plate with a cell-repellent surface (Greiner Bio-One, Kremsmünster, Austria) and cultured in RPMI 1640 medium with 10% fetal bovine serum, 2 mM glutamine plus 3% Matrigel (BD Biosciences, San Jose, CA, EUA) and 50 μg/mL gentamycin at 37°C with 5% CO2. Spheroids with stable structures formed after 3 days. Then, the complexes were dissolved in 0.5% DMSO at eight different concentrations from 0.19 to 25 μg/mL, were added to each well and incubated for 72 h. […] At the end of the experiment, morphological changes were examined by light microscopy (Olympus BX41, Tokyo, Japan) using Image-Pro software (Media Cybernetics, Inc. Silver Spring, USA), and cytotoxicity was quantified with the Alamar blue method as described above.

calf thymus DNA (ctDNA) = assay: DNA interaction assay (ethidium bromide displacement); type: binding
Method: DNA interaction was measured in a cell-free system as previously described ([22]). In this assay, the ability of the complexes to translocate ethidium bromide, a DNA intercalator, from calf thymus DNA (ctDNA, Sigma-Aldrich Co.) was examined. […] […] After a 15 min incubation at room temperature, fluorescence was measured using the excitation and emission wavelengths of 320 and 600 nm, respectively, using a Spectramax Microplate Reader (Molecular Devices).

[2] = test system: BAD KO SV40 MEF (BAD gene knockout immortalized mouse embryonic fibroblasts); assay: Alamar blue cytotoxicity assay, 72 h; type: cell-based; conditions: read-out: IC50 and 95% CI
[3] = test system: WT SV40 MEF (wild-type immortalized mouse embryonic fibroblast); assay: Alamar blue cytotoxicity assay, 72 h; type: cell-based; conditions: read-out: IC50 and 95% CI
[4] = for Differential leukocytes: Eosinophils / Differential leukocytes: Lymphocytes / Differential leukocytes: Monocytes / Differential leukocytes: Neutrophils / Erythrocytes / Total leukocytes: peripheral blood
Method: A human hepatocellular carcinoma xenograft model was generated by subcutaneously implanting HepG2 cells (1 × 10^7 cells per 500 μL) into the left front armpit of C.B-17 SCID mice. […] The treatments were initiated one day after the cancer cell injection. The animals were treated intraperitoneally (200 μL per animal) once a day for 21 consecutive days. On the 22nd day, the animals were anesthetized, and peripheral blood samples were collected from the brachial artery. Animals were euthanized by an anesthetic overdose, and tumors were excised and weighed.
To evaluate the toxicological aspects, mice were weighed at the beginning and at the end of the experiment. […] Hematological analysis was performed using an Advia 60 hematology system (Bayer, Leverkusen, Germany).

[5] = test system: K-562 (human chronic myelogenous leukemia); assay: Alamar blue cytotoxicity assay, 72 h; type: cell-based; conditions: for IC50: read-out: IC50 and 95% CI, K-562, 72 h
From the text: (§1) The cell lines HepG2 (human hepatocellular carcinoma), HL-60 (human promyelocytic leukemia), K-562 (human chronic myelogenous leukemia), B16-F10 (mouse melanoma), MCF-7 (human breast carcinoma), HCT116 (human colon carcinoma), HSC-3 (human oral squamous cell carcinoma), SCC-4 (human oral squamous cell carcinoma), MRC-5 (human lung fibroblast), WT SV40 MEF (wild-type immortalized mouse embryonic fibroblast), and BAD KO SV40 MEF (BAD gene knockout immortalized mouse embryonic fibroblasts) were obtained from the American Type Culture Collection (ATCC, Manassas, VA, USA). Cells were cultured in RPMI 1640 medium (Gibco-BRL, Gaithersburg, MD, USA) with 10% fetal bovine serum (Life, Carlsbad, CA, USA), 2 mM L-glutamine (Vetec Química Fina, Duque de Caxias, RJ, Brazil) and 50 μg/mL gentamycin (Life). For all experiments, adherent cells were collected by treatment with 0.25% trypsin-EDTA solution (Gibco-BRL). All cell lines were cultured in flasks at 37°C in 5% CO2 and were subcultured every 3–4 days to maintain exponential growth. All cell lines were tested for mycoplasma using a mycoplasma staining kit (Sigma-Aldrich Co.) to validate that the cells that were used were free from contamination.
(§2) Cytotoxicity was measured colorimetrically using an Alamar blue method that was performed as previously described ([20], [21]). Cells were seeded in 96-well plates for all experiments (7 × 10^4 cells/mL for adherent cells or 3 × 10^5 cells/mL for suspension cells in 100 μL of medium) and incubated overnight at 37°C with 5% CO2 to allow for adherence. The complexes were dissolved in 0.5% dimethyl sulfoxide (DMSO, Vetec Química Fina) at eight different concentrations from 0.19 to 25 μg/mL and were added to each well and incubated for 72 h. The negative control was treated with the vehicle (0.5% DMSO) that was used to solubilize and dilute the complexes. […] Four (for cell lines) or 24 h (for PBMCs) before the end of incubation, 20 μL of a stock solution (0.312 mg/mL) of resazurin (Sigma-Aldrich Co.) was added to each well. Absorbance was measured at 570 and 600 nm using a SpectraMax 190 Microplate Reader (Molecular Devices, Sunnyvale, CA, USA).

B16-F10 (mouse melanoma) = assay: Alamar blue cytotoxicity assay, 72 h; type: cell-based
From the text: as §1, §2

[6] = test system: HepG2 (human hepatocellular carcinoma); assay: Alamar blue cytotoxicity assay, 72 h; type: cell-based
From the text: as §1, §2

HepG2 cells = assay: Trypan blue exclusion assay; type: cell-based, human
Method: For all subsequent in vitro experiments, 2 mL of a suspension of HepG2 cells were seeded (7 × 10^4 cells/mL) and incubated in a 24-well plate overnight to allow the cells to adhere to the plate surface.
In the trypan blue exclusion assay, the number of viable cells and non-viable cells (stained with trypan blue) were counted. Briefly, 90 μL was removed from the cell suspension, and 10 μL of trypan blue (0.4%) was added. Cell counting was performed using a light microscope with a hemocytometer filled with an aliquot of the homogenized cell suspension.

## Cn1ccnc1[S-].F[P-](F)(F)(F)(F)F.[Ru+2].c1ccc(-c2ccccn2)nc1.c1ccc(P(CCCCP(c2ccccc2)c2ccccc2)c2ccccc2)cc1 [Complex 1, [Ru(mmi)(bipy)(dppb)]PF6]
[1]
  IC50: 6500 nM
Calf thymus DNA (ctDNA); 5 μM
  reduction of the fluorescence intensity (ethidium bromide-ctDNA) vs negative control: 41.6%
Calf thymus DNA (ctDNA); 10 μM
  reduction of the fluorescence intensity (ethidium bromide-ctDNA) vs negative control: 34.0%
Calf thymus DNA (ctDNA); 20 μM
  reduction of the fluorescence intensity (ethidium bromide-ctDNA) vs negative control: 30.4%
[2]
  IC50: 700 nM
[3]
  IC50: 1100 nM
[4]; 0.5 mg/kg/day
  Initial body weight: 21.7 ± 0.2 g
[4]; 0.5 mg/kg/day i.p., 21 days
  Final body weight: 20.4 ± 0.3 g
  Survival: 10/10
[4]; 1 mg/kg/day
  Initial body weight: 20.3 ± 0.2 g
[4]; 1 mg/kg/day i.p., 21 days
  Final body weight: 20.9 ± 0.4 g
  Survival: 10/10
[4]; 0.5 mg/kg/day, 21 days
  Differential leukocytes: Eosinophils: 0.7%
  Differential leukocytes: Lymphocytes: 36.4%
  Differential leukocytes: Monocytes: 39.9%
  Differential leukocytes: Neutrophils: 23.8%
  Erythrocytes: 10.5 ± 0.6 10^6cells/μL
  Total leukocytes: 2.3 ± 0.4 10^3cells/μL
[4]; 1 mg/kg/day, 21 days
  Differential leukocytes: Eosinophils: 1.4%
  Differential leukocytes: Lymphocytes: 55.5%
  Differential leukocytes: Monocytes: 20.1%
  Differential leukocytes: Neutrophils: 24.4%
  Erythrocytes: 6.7 ± 0.9 10^6cells/μL
  Total leukocytes: 3.9 ± 1.9 10^3cells/μL
[5]; PBMCs vs K-562
  Selectivity index (SI = IC50 [noncancerous cells]/IC50 [cancer cells]): 1.9
[5]
  IC50: 1400 nM
B16-F10 (mouse melanoma); MRC-5 vs B16-F10
  Selectivity index (SI = IC50 [noncancerous cells]/IC50 [cancer cells]): 1.3
B16-F10 (mouse melanoma); PBMCs vs B16-F10
  Selectivity index (SI = IC50 [noncancerous cells]/IC50 [cancer cells]): 1.5
[6]; read-out: IC50 and 95% CI, HepG2, 72 h
  IC50: 2600 nM
HepG2 cells; 5 μM, 24 h
  reduction of the number of viable cells vs negative control: 40.1%
HepG2 cells; 5 μM, 48 h
  reduction of the number of viable cells vs negative control: 80.9%
HepG2 cells; 10 μM, 24 h
  reduction of the number of viable cells vs negative control: 78.9%
HepG2 cells; 10 μM, 48 h
  reduction of the number of viable cells vs negative control: 93.9%

## F[P-](F)(F)(F)(F)F.[Ru+2].[S-]C1=NCCS1.c1ccc(-c2ccccn2)nc1.c1ccc(P(CCCCP(c2ccccc2)c2ccccc2)c2ccccc2)cc1 [Complex 2, [Ru(tzdt)(bipy)(dppb)]PF6]
[1]
  IC50: 7300 nM
Calf thymus DNA (ctDNA); 5 μM
  reduction of the fluorescence intensity (ethidium bromide-ctDNA) vs negative control: 36.9%
Calf thymus DNA (ctDNA); 10 μM
  reduction of the fluorescence intensity (ethidium bromide-ctDNA) vs negative control: 42.9%
Calf thymus DNA (ctDNA); 20 μM
  reduction of the fluorescence intensity (ethidium bromide-ctDNA) vs negative control: 45.4%
[2]
  IC50: 2900 nM
[3]
  IC50: 2000 nM
[4]; 0.5 mg/kg/day
  Initial body weight: 20.4 ± 0.4 g
[4]; 0.5 mg/kg/day i.p., 21 days
  Final body weight: 20.8 ± 0.4 g
  Heart relative weight: 0.6 ± 0.1 g/100 g body weight
  Kidney relative weight: 1.5 ± 0.1 g/100 g body weight
  Liver relative weight: 4.7 ± 0.2 g/100 g body weight
  Lung relative weight: 0.8 ± 0.1 g/100 g body weight
  Survival: 10/10
[4]; 1 mg/kg/day
  Initial body weight: 19.9 ± 0.5 g
[4]; 1 mg/kg/day i.p., 21 days
  Final body weight: 19.4 ± 0.5 g
  Heart relative weight: 0.6 ± 0.1 g/100 g body weight
  Kidney relative weight: 1.5 ± 0.1 g/100 g body weight
  Liver relative weight: 4.6 ± 0.1 g/100 g body weight
  Lung relative weight: 0.8 ± 0.1 g/100 g body weight
  Survival: 10/10
[4]; 0.5 and 1 mg/kg/day i.p., 21 days
  hepatotoxicity: focal areas of coagulation necrosis in the liver (histology): more evident; also recorded: evidence of hepatotoxicity
[4]; 0.5 mg/kg/day, 21 days
  Differential leukocytes: Eosinophils: 1.3%
  Differential leukocytes: Lymphocytes: 39.9%
  Differential leukocytes: Monocytes: 39.1%
  Differential leukocytes: Neutrophils: 21.1%
  Erythrocytes: 8.5 ± 1.0 10^6cells/μL
  Total leukocytes: 2.5 ± 0.4 10^3cells/μL
[4]; 1 mg/kg/day, 21 days
  Differential leukocytes: Eosinophils: 1.1%
  Differential leukocytes: Lymphocytes: 32.2%
  Differential leukocytes: Monocytes: 32.5%
  Differential leukocytes: Neutrophils: 34.4%
  Erythrocytes: 7.8 ± 0.8 10^6cells/μL
  Total leukocytes: 2.7 ± 0.4 10^3cells/μL
[5]; MRC-5 vs K-562
  Selectivity index (SI = IC50 [noncancerous cells]/IC50 [cancer cells]): 1.8
[5]; PBMCs vs K-562
  Selectivity index (SI = IC50 [noncancerous cells]/IC50 [cancer cells]): 2.9
[5]
  IC50: 900 nM
B16-F10 (mouse melanoma); MRC-5 vs B16-F10
  Selectivity index (SI = IC50 [noncancerous cells]/IC50 [cancer cells]): 1.2
B16-F10 (mouse melanoma); PBMCs vs B16-F10
  Selectivity index (SI = IC50 [noncancerous cells]/IC50 [cancer cells]): 2.0
[6]; MRC-5 vs HepG2
  Selectivity index (SI = IC50 [noncancerous cells]/IC50 [cancer cells]): 0.8
[6]; PBMCs vs HepG2
  Selectivity index (SI = IC50 [noncancerous cells]/IC50 [cancer cells]): 1.4
HepG2 cells; 2 μM, 24 h
  reduction of the number of viable cells vs negative control: 42.1%
HepG2 cells; 2 μM, 48 h
  reduction of the number of viable cells vs negative control: 67.3%
HepG2 cells; 4 μM, 24 h
  reduction of the number of viable cells vs negative control: 58.6%
HepG2 cells; 4 μM, 48 h
  reduction of the number of viable cells vs negative control: 93.1%

## COc1cccc2c1C(=O)c1c(O)c3c(c(O)c1C2=O)C[C@@](O)(C(=O)CO)C[C@@H]3O[C@H]1C[C@H](N)[C@H](O)[C@H](C)O1 [Doxorubicin, reference compound]
[1]; Homo sapiens
  IC50: 10300 nM
Calf thymus DNA (ctDNA); 20 μM
  reduction of the fluorescence intensity (ethidium bromide-ctDNA) vs negative control: 89.0%
[2]; Mus musculus, Fibroblast
  IC50: 400 nM
[3]; Mus musculus, Fibroblast
  IC50: 40 nM
[4]; 0.3 mg/kg/day
  Initial body weight: 22.3 ± 0.4 g
[4]; 0.3 mg/kg/day i.p., 21 days
  Final body weight: 19.5 ± 0.6 g
  Heart relative weight: 0.5 ± 0.02 g/100 g body weight
  Kidney relative weight: 1.5 ± 0.04 g/100 g body weight
  Liver relative weight: 4.8 ± 0.1 g/100 g body weight
  Lung relative weight: 0.9 ± 0.06 g/100 g body weight
[4]; 0.3 mg/kg/day, 21 days
  Differential leukocytes: Eosinophils: 1.0%
  Differential leukocytes: Lymphocytes: 49.3%
  Differential leukocytes: Monocytes: 1.0%
  Differential leukocytes: Neutrophils: 48.8%
  Erythrocytes: 8.9 ± 0.7 10^6cells/μL
  Total leukocytes: 1.5 ± 0.2* 10^3cells/μL
[5]; MRC-5 vs K-562
  Selectivity index (SI = IC50 [noncancerous cells]/IC50 [cancer cells]): 0.4
[5]; PBMCs vs K-562
  Selectivity index (SI = IC50 [noncancerous cells]/IC50 [cancer cells]): 2.8
B16-F10 (mouse melanoma); MRC-5 vs B16-F10
  Selectivity index (SI = IC50 [noncancerous cells]/IC50 [cancer cells]): 2.0
B16-F10 (mouse melanoma); Mus musculus, B16-F10, 72 h, read-out: IC50 and 95% CI
  IC50: 200 nM
B16-F10 (mouse melanoma); PBMCs vs B16-F10
  Selectivity index (SI = IC50 [noncancerous cells]/IC50 [cancer cells]): 12.5
[6]; MRC-5 vs HepG2
  Selectivity index (SI = IC50 [noncancerous cells]/IC50 [cancer cells]): 1.3
[6]; PBMCs vs HepG2
  Selectivity index (SI = IC50 [noncancerous cells]/IC50 [cancer cells]): 8.3
HepG2 cells; 2 μM, 24 h
  reduction of the number of viable cells vs negative control: 53.1%
HepG2 cells; 2 μM, 48 h
  reduction of the number of viable cells vs negative control: 74.7%

Reference: PMC6629894, “Ruthenium Complexes Containing Heterocyclic Thioamidates Trigger Caspase-Mediated Apoptosis Through MAPK Signaling in Human Hepatocellular Carcinoma Cells” (Frontiers in Oncology, 2019)
